Target: Prostaglandin F2-alpha receptor (Homo sapiens, UniProt P43088)
Assay: In Vitro Test of Inhibition of Human FP Receptor Activity : For the characterization of test substances in respect of FP antagonism, PGF2α-induced calcium flux in FP-expressing CHEM1 cells (Millipore, HTS093C) was used.3000 cells in 25 μl of full medium [DMEM F12, 10% FCS, 1.35 mM sodium pyruvate, 20 mM HEPES, 4 mM GlutaMAX, 2% sodium bicarbonate, 1% Pen/Strep, 1% 100× non-essential amino acids] are sown per well of a 384 multititer plate (from Greiner, TC plate, black with clear base) and incubated at 37° C./5% CO2 for 24 hours. Prior to the measurement, the medium is replaced by 30 μl of Fluo-8 AM loading buffer [calcium-free Tyrode (130 mM NaCl, 5 mM KCl, 20 mM HEPES, 1 mM MgCl2, 4.8 mM NaHCO3, pH 7.4), 2 mM CaCl2, 1× SmartBlock (from CANDOR Bioscience GmbH), 4.5 mM Probenecid, 5 μM Fluo-8 AM, 0.016% Pluronic, 0.04% Brilliant black] and incubated at 37° C./5% CO2 for 30 minutes. The test substance is prepared in DMSO in various concentrations as a dose-response curve (starting concentration 10 mM, dilution factor 3.16) and prediluted 1:50 with calcium-free Tyrode/2 mM CaCl2. 10 μl of the prediluted substance solution are added to the Fluo-8-laden cells and incubated at 37° C./5% CO2 for 10 minutes. […]
Assay type: cell-based

Prostaglandin F2-alpha receptor, sequence (P43088 whole entry): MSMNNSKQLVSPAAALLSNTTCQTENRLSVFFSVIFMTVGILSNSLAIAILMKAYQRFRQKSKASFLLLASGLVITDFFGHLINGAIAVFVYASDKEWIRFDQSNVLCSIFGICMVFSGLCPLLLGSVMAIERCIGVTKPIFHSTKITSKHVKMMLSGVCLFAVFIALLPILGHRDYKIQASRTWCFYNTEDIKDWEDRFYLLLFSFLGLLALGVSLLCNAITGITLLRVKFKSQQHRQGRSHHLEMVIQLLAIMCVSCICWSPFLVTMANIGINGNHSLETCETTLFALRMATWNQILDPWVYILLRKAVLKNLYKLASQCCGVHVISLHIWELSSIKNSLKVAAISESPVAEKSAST

Cc1c(-c2ccccc2)nc2ccc(C(C)(C)C)cc2c1C(=O)NC12CCC(C(=O)O)(CC1)CC2
IC50: 456 nM

From ChEMBL document CHEMBL5725856, “Substituted N-bicyclo-2-aryl-quinolin-4-carboxamides and use thereof” (2018)
